Experimental data published in patent publication US20120065179A1, “PRODRUG COMPRISING BETA-KETO CARBOXYLIC ACID, BETA-KETO CARBOXYLIC ACID SALT OR BETA-KETO CARBOXYLIC ACID ESTER FOR DRUG DELIVERY” (YKI, Ytemiska Institutet AB, priority 2009, published 2012).
Several values for one entry are separate records, joined by “and”; a condition that tells them apart may be missing. Equal values may be shown once. Read-outs that look alike come from different tables or passages of the source.

Tests used:
[1] = Aqueous solubility of sodium beta-keto salt prodrug of Nabumetone (Example 13b); assay type: physicochemical
Experimental: 12.1 mg of the of ethyl-5-(6-methoxy-2-naphthyl)-beta-keto-pentanoate product prepared and purified as in Example 8 was mixed with 25 mL of a 0.5 M aqueous solution NaOH and homogenised on a vortex mixer. […] 15 minutes after preparation of the sample, the sample was transferred to an oil bath set at 37° C. with continuous gentle magnetic stirring, and kept there for 3.5 hours. Crystalline flakes remained in the sample at the end of the 3.5 hours heat-treatment, and the sample was thereafter centrifuged and the clear liquid above the sedimented crystals was analysed by HPLC as described above.
After storage around one hour at room temperature a fraction of the sample was then filtered twice through a 0.2 μm filter (Whatman, 0.2 μm PS) fitted to a syringe to give a clear solution. 200 μL of this filtered solution was transferred, in a tightly closed vessel, to an oil bath at 95° C. and kept at this temperature for about 5 hours to bring about quantitative decarboxylation of the labile, dissolved beta-keto carboxylic salt prodrug derivative of Nabumetone.
The heated sample was then mixed with 35 mL of mobile phase (see Example 1) whereby a few solid crystals (comprising Nabumetone) was seen to not dissolve. In order to assure a correct sampling for HPLC analysis, 5 mL of the 35 mL sample was filtered through a 0.2 μm filter, after the whole 35 mL sample had been pH adjusted to 4.21 by 300 μL 0.1 M HCl+100 μL 1 M HCl, to assure that the pH of the sample was close to the pH of the mobile phase itself (pH 4.30). The filtered solution was thereafter analysed by HPLC and found to contain 0.777 mg Nabumetone per liter. If recalculated to the corresponding concentration of nabumetone equivalents in the form of the beta-keto salt prodrug present in dissolved form in the filtered 200 μl sample that was subsequently heat-treated to form Nabumetone above, the obtained concentration corresponds to a Nabumetone concentration of 136.7 mg Nabumetone per liter in the clear aqueous solution, at room temperature, before the heat-treatment at 95° C.

[2] = Sustained release of Nabumetone from beta-keto sodium salt prodrug in phosphate buffer at blood pH and 37° C.; assay type: physicochemical; details: phosphate buffer pH about 7.4, 37° C.
Experimental: 20.91 mg of the product synthesised as described in Example 8 (however in this case not purified by the chromatographic step in Example 8) was mixed with 1 ml 0.5 M NaOH at room temperature, whereby a portion of the sample was dissolved. After 30 minutes the mixture was placed in an oven at 37° C., and 10 μl samples was taken at regular intervals, diluted with 1 ml mobile phase (as in Example 1), and analyzed by HPLC, using UV-detection at 240 nm. 3.0 hours after initiation of the saponification reaction, the precursor (retention time 4.6 min) could no longer be detected, and the precursor peak was replaced by a peak from the intermediary beta-keto salt prodrug (retention time 2.3 minutes). At this point in time, a solution of 9 ml H2O and 0.0762 g NaH2PO4 was added to the sample, in order to create a NaH2PO4/Na2HPO4 pH buffer by neutralization of the NaOH remaining in the sample. […] The sample was again placed in the oven at 37° C. and the decarboxylation of the beta-keto salt in solution, gradually giving the commercially available drug Nabumetone, was followed by HPLC by taking 100 μl samples at regular intervals and diluting them with 1 ml mobile phase (see Example 1 above) before injection on the HPLC. It can be seen from the data that Nabumetone was continuously released into the solution via the spontaneous, non-enzymatic decarboxylation of the dissolved prodrug sodium salt, over a period of more than 120 hours. The half-life of the prodrug was estimated to be about 70 hours in this medium and under the conditions used.

[3] = Sustained release of acetophenone in vitro in model blood electrolyte solution at 37° C.; assay type: physicochemical; details: formed from sodium benzoyl acetate, model blood electrolyte solution pH 7.4
Experimental: A 0.2 M solution of ethyl benzoyl acetate (90%, Sigma Aldrich) in 0.5 M NaOH (aq) was prepared at room temperature and stirred for typically 5-24 hours, still at room temperature. After this time a major part of the ethyl benzoyl acetate had been transformed into dissolved sodium benzoyl acetate, as evidenced by monitoring the reaction by analysis of samples by reversed phase HPLC. Some acetophenone and remaining ethyl benzoyl acetate were typically present in the samples, but in minor amounts. The method employed a C8 column with an inner diameter of 150×4.6 mm and 5 micron particles. The mobile phase consisted of 400 ml deionized water+600 ml acetonitrile+0.196 g H3PO4 (85%)+2.760 g NaH2PO4*H2O. The flow rate was set to 1.0 mL/min and UV detection at 254 nm was employed for analysis of the compounds ethylbenzoylacetate (precursor), benzoylacetate (model prodrug) and acetophenone (model drug).
Ethyl benzoyl acetate was saponified according to the description in Example 1, and after 7 hours a solution containing about 0.2 M of the sodium salt of benzoyl acetate was obtained.

[4] = cited from earlier work
[5] = pig, 2 mM, pH 6.63

## 5-(6-methoxy-2-naphthyl)-beta-keto-pentanoate [Nabumetone beta-keto salt prodrug]
[1]; clear aqueous solution (0.5 M NaOH) at room temperature, 0.2 μm filtered, before heat-treatment
  Solubility (mg/L, as Nabumetone equivalents): 136.7 mg/L
[1]; clear liquid after 3.5 h at 37° C. in 0.5 M NaOH, 200 μL diluted with 5.0 ml mobile phase
  Area at retention time 2.3 minutes characteristic for detection of the beta-keto anion: 36218 arbitrary units
[2]
  half-life of the prodrug (estimated): about 70 hours
  period over which Nabumetone was continuously released into the solution: more than 120 hours
[2]; 3.25 h after initiation of saponification
  Nabumetone beta-keto salt prodrug (HPLC area @ retention time 2.3 min): 28341
[2]; 5.1 h after initiation of saponification
  Nabumetone beta-keto salt prodrug (HPLC area @ retention time 2.3 min): 27144
[2]; 21.45 h after initiation of saponification
  Nabumetone beta-keto salt prodrug (HPLC area @ retention time 2.3 min): 22542
[2]; 24.25 h after initiation of saponification
  Nabumetone beta-keto salt prodrug (HPLC area @ retention time 2.3 min): 24102 and 21914
[2]; 28.15 h after initiation of saponification
  Nabumetone beta-keto salt prodrug (HPLC area @ retention time 2.3 min): 19536
[2]; 45.4 h after initiation of saponification
  Nabumetone beta-keto salt prodrug (HPLC area @ retention time 2.3 min): 18202
[2]; 50 h after initiation of saponification
  Nabumetone beta-keto salt prodrug (HPLC area @ retention time 2.3 min): 18123
[2]; 78 h after initiation of saponification
  Nabumetone beta-keto salt prodrug (HPLC area @ retention time 2.3 min): 9528
[2]; 117 h after initiation of saponification
  Nabumetone beta-keto salt prodrug (HPLC area @ retention time 2.3 min): 9760
[2]; 194 h after initiation of saponification
  Nabumetone beta-keto salt prodrug (HPLC area @ retention time 2.3 min): 1827

## CC(=O)c1ccccc1 [acetophenone]
[3]; Time @ 37° C. 0.42
  Concentration of acetophenone (model drug) in sample: 160 µM
[3]; Time @ 37° C. 2.25
  Concentration of acetophenone (model drug) in sample: 290 µM
[3]; Time @ 37° C. 3.17
  Concentration of acetophenone (model drug) in sample: 380 µM
[3]; Time @ 37° C. 4.17
  Concentration of acetophenone (model drug) in sample: 480 µM
[3]; Time @ 37° C. 6.17
  Concentration of acetophenone (model drug) in sample: 400 µM
[3]; Time @ 37° C. 8.25
  Concentration of acetophenone (model drug) in sample: 630 µM
[3]; Time @ 37° C. 10.17
  Concentration of acetophenone (model drug) in sample: 730 µM
[3]; Time @ 37° C. 12.17
  Concentration of acetophenone (model drug) in sample: 730 µM
[3]; Time @ 37° C. 13.92
  Concentration of acetophenone (model drug) in sample: 900 µM
[3]; Time @ 37° C. 17.92
  Concentration of acetophenone (model drug) in sample: 920 µM
[3]; Time @ 37° C. 21.17
  Concentration of acetophenone (model drug) in sample: 1080 µM
[3]; Time @ 37° C. 24.92
  Concentration of acetophenone (model drug) in sample: 950 µM
[3]; Time @ 37° C. 31.33
  Concentration of acetophenone (model drug) in sample: 1110 µM
[3]; Time @ 37° C. 48.75
  Concentration of acetophenone (model drug) in sample: 1550 µM
[3]; Time @ 37° C. 76.33
  Concentration of acetophenone (model drug) in sample: 1890 µM
[4]; tabulated solubility
  Solubility: 46 mM
[5]; 0.25 h
  Acetophenone concentration: 0.09 mM
[5]; 1.33 h
  Acetophenone concentration: 0.32 mM
[5]; 2.58 h
  Acetophenone concentration: 0.50 mM
[5]; 4.75 h
  Acetophenone concentration: 0.866 mM
[5]; 5.58 h
  Acetophenone concentration: 0.866 mM
[5]; 6.58 h
  Acetophenone concentration: 0.921 mM
[5]; 22.58 h
  Acetophenone concentration: 1.34 mM
[5]; -0.17 h
  Acetophenone concentration: 0.07 mM

## C[C@]12CC[C@H]3[C@@H](CCC4=CC(=O)CC[C@@]43C)[C@@H]1CC[C@@H]2O [testosterone, (8R,9S,10R,13S,14S,17S)-17-hydroxy-10,13-dimethyl-1,2,6,7,8,9,11,12,14,15,16,17-dodecahydrocyclopenta[a]phenanthren-3-one]
[4]; at 37° C., Okimotoa et al., 1999
  Solubility: 39 µg/mL
